Measurements from publication PMC5862592, “CDK8/19 inhibition induces premature G1/S transition and ATR-dependent cell death in prostate cancer cells” (Oncotarget, 2018).
Like-named read-outs stand apart in the source and are kept apart here.

Legend:
ABL1-nonphosphorylated = target: T1, ABL1-nonphosphorylated (Homo sapiens, UniProt P00519); assay: biochemical; set-up: KINOMEscan active site-directed competition binding assay (DiscoveRx), 456 kinases, per cent of control at 300 nM; conditions: read-out: Percent of Control (%)
T1 construct: nonphosphorylated
How it was run: (§1)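 Values reflect active-site competition binding from a screen of 456 kinases, with test compounds at a fixed 300 nmol/L.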

AMPK-alpha1 = target: T2, AMPK-alpha1 (Homo sapiens, UniProt Q13131); assay: biochemical; set-up: KINOMEscan active site-directed competition binding assay (DiscoveRx), 456 kinases, per cent of control at 300 nM; conditions: read-out: Percent of Control (%)
T2 construct: gene PRKAA1
How it was run: as §1

BRAF(V600E) = BRAF(V600E) (Homo sapiens, UniProt P15056, V600E); assay: biochemical; set-up: KINOMEscan active site-directed competition binding assay (DiscoveRx), 456 kinases, per cent of control at 300 nM; conditions: read-out: Percent of Control (%)
How it was run: as §1

CHEK2 = CHEK2 (Homo sapiens, UniProt O96017); assay: biochemical; set-up: KINOMEscan active site-directed competition binding assay (DiscoveRx), 456 kinases, per cent of control at 300 nM; conditions: read-out: Percent of Control (%)
How it was run: as §1

DDR2 = DDR2 (Homo sapiens, UniProt Q16832); assay: biochemical; set-up: KINOMEscan active site-directed competition binding assay (DiscoveRx), 456 kinases, per cent of control at 300 nM; conditions: read-out: Percent of Control (%)
How it was run: as §1

DMPK2 = target: T3, DMPK2 (Homo sapiens, UniProt Q6DT37); assay: biochemical; set-up: KINOMEscan active site-directed competition binding assay (DiscoveRx), 456 kinases, per cent of control at 300 nM; conditions: read-out: Percent of Control (%)
T3 construct: gene CDC42BPG
How it was run: as §1

EGFR = EGFR (Homo sapiens, UniProt P00533); assay: biochemical; set-up: KINOMEscan active site-directed competition binding assay (DiscoveRx), 456 kinases, per cent of control at 300 nM; conditions: read-out: Percent of Control (%)
How it was run: as §1

HUNK = HUNK (Homo sapiens, UniProt P57058); assay: biochemical; set-up: KINOMEscan active site-directed competition binding assay (DiscoveRx), 456 kinases, per cent of control at 300 nM; conditions: read-out: Percent of Control (%)
How it was run: as §1

IKK-beta = target: T4, IKK-beta (Homo sapiens, UniProt O14920); assay: biochemical; set-up: KINOMEscan active site-directed competition binding assay (DiscoveRx), 456 kinases, per cent of control at 300 nM; conditions: read-out: Percent of Control (%)
T4 construct: gene IKBKB
How it was run: as §1

JNK1 = target: T5, JNK1 (Homo sapiens, UniProt P45983); assay: biochemical; set-up: KINOMEscan active site-directed competition binding assay (DiscoveRx), 456 kinases, per cent of control at 300 nM; conditions: read-out: Percent of Control (%)
T5 construct: gene MAPK8
How it was run: as §1

LATS2 = LATS2 (Homo sapiens, UniProt Q9NRM7); assay: biochemical; set-up: KINOMEscan active site-directed competition binding assay (DiscoveRx), 456 kinases, per cent of control at 300 nM; conditions: read-out: Percent of Control (%)
How it was run: as §1

MARK2 = MARK2 (Homo sapiens, UniProt Q7KZI7); assay: biochemical; set-up: KINOMEscan active site-directed competition binding assay (DiscoveRx), 456 kinases, per cent of control at 300 nM; conditions: read-out: Percent of Control (%)
How it was run: as §1

MKK7 = target: T6, MKK7 (Homo sapiens, UniProt O14733); assay: biochemical; set-up: KINOMEscan active site-directed competition binding assay (DiscoveRx), 456 kinases, per cent of control at 300 nM; conditions: read-out: Percent of Control (%)
T6 construct: gene MAP2K7
How it was run: as §1

MYLK = MYLK (Homo sapiens, UniProt Q15746); assay: biochemical; set-up: KINOMEscan active site-directed competition binding assay (DiscoveRx), 456 kinases, per cent of control at 300 nM; conditions: read-out: Percent of Control (%)
How it was run: as §1

PFPK5(P.falciparum) = target: T7, PFPK5(P.falciparum) (Plasmodium falciparum, UniProt P61075); assay: biochemical; set-up: KINOMEscan active site-directed competition binding assay (DiscoveRx), 456 kinases, per cent of control at 300 nM; conditions: read-out: Percent of Control (%)
T7 construct: gene MAL13P1.279
How it was run: as §1

PLK2 = PLK2 (Homo sapiens, UniProt Q9NYY3); assay: biochemical; set-up: KINOMEscan active site-directed competition binding assay (DiscoveRx), 456 kinases, per cent of control at 300 nM; conditions: read-out: Percent of Control (%)
How it was run: as §1

PRKCH = PRKCH (Homo sapiens, UniProt P24723); assay: biochemical; set-up: KINOMEscan active site-directed competition binding assay (DiscoveRx), 456 kinases, per cent of control at 300 nM; conditions: read-out: Percent of Control (%)
How it was run: as §1

PRKD1 = PRKD1 (Homo sapiens, UniProt Q15139); assay: biochemical; set-up: KINOMEscan active site-directed competition binding assay (DiscoveRx), 456 kinases, per cent of control at 300 nM; conditions: read-out: Percent of Control (%)
How it was run: as §1

ROS1 = ROS1 (Homo sapiens, UniProt P08922); assay: biochemical; set-up: KINOMEscan active site-directed competition binding assay (DiscoveRx), 456 kinases, per cent of control at 300 nM; conditions: read-out: Percent of Control (%)
How it was run: as §1

TBK1 = TBK1 (Homo sapiens, UniProt Q9UHD2); assay: biochemical; set-up: KINOMEscan active site-directed competition binding assay (DiscoveRx), 456 kinases, per cent of control at 300 nM; conditions: read-out: Percent of Control (%)
How it was run: as §1

TESK1 = TESK1 (Homo sapiens, UniProt Q15569); assay: biochemical; set-up: KINOMEscan active site-directed competition binding assay (DiscoveRx), 456 kinases, per cent of control at 300 nM; conditions: read-out: Percent of Control (%)
How it was run: as §1

CDK8 = CDK8 (Homo sapiens, UniProt P49336); assay: TR-FRET ligand displacement assay (Kinase Tracer […], Tb-anti-GST); format: binding; set-up: GST-CDK8; with Cyclin C

Sequence of PRKD1 (Q15139 whole entry): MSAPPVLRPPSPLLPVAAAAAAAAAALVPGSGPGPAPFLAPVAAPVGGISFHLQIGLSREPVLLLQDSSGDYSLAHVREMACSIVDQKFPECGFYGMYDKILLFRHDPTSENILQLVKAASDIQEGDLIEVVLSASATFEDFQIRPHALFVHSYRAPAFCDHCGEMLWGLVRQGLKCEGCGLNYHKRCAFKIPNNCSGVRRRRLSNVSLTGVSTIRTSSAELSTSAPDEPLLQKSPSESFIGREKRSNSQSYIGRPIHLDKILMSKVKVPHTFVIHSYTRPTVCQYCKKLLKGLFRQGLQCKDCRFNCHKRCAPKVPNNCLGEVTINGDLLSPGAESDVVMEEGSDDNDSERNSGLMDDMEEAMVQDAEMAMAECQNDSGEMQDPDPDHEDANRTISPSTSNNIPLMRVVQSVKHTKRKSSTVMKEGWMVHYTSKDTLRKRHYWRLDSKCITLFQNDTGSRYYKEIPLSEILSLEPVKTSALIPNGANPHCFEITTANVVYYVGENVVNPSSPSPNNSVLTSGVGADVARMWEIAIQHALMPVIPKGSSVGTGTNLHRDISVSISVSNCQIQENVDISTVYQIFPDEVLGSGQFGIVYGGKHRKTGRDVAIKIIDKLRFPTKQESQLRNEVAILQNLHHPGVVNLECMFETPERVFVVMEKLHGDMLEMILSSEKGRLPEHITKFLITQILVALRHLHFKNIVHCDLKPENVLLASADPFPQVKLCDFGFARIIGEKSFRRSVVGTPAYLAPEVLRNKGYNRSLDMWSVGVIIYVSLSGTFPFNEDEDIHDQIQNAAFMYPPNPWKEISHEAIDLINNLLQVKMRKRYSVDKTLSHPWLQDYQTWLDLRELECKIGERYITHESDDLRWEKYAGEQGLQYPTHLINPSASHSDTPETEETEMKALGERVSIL
Sequence of TBK1 (Q9UHD2 whole entry): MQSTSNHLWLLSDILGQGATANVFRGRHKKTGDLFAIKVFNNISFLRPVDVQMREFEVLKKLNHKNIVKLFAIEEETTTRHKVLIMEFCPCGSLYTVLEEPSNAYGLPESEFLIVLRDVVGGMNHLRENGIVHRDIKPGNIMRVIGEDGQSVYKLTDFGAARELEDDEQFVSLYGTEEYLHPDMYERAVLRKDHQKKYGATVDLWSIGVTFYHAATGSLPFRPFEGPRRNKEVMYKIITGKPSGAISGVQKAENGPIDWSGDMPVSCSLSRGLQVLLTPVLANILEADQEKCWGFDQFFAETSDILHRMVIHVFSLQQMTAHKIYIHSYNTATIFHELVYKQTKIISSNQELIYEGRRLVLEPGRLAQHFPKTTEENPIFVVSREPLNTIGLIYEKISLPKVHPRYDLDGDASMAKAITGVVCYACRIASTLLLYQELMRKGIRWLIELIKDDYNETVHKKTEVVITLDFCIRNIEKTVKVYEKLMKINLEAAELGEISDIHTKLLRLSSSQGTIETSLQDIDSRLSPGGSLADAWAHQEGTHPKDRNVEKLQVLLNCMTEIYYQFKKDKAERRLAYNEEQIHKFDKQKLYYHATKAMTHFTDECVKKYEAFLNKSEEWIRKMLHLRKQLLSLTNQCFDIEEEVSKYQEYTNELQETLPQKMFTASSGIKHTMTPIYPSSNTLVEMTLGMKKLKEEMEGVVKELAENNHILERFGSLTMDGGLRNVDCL
T7 sequence (P61075 whole entry): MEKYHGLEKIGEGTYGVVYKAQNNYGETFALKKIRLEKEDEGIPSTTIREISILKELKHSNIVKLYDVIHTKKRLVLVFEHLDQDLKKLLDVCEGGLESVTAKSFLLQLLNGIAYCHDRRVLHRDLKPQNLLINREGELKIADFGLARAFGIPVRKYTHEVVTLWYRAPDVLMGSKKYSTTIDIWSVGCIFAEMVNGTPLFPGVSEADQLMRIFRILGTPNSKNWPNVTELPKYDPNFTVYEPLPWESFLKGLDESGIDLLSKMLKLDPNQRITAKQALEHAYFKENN
Sequence of EGFR (P00533 whole entry): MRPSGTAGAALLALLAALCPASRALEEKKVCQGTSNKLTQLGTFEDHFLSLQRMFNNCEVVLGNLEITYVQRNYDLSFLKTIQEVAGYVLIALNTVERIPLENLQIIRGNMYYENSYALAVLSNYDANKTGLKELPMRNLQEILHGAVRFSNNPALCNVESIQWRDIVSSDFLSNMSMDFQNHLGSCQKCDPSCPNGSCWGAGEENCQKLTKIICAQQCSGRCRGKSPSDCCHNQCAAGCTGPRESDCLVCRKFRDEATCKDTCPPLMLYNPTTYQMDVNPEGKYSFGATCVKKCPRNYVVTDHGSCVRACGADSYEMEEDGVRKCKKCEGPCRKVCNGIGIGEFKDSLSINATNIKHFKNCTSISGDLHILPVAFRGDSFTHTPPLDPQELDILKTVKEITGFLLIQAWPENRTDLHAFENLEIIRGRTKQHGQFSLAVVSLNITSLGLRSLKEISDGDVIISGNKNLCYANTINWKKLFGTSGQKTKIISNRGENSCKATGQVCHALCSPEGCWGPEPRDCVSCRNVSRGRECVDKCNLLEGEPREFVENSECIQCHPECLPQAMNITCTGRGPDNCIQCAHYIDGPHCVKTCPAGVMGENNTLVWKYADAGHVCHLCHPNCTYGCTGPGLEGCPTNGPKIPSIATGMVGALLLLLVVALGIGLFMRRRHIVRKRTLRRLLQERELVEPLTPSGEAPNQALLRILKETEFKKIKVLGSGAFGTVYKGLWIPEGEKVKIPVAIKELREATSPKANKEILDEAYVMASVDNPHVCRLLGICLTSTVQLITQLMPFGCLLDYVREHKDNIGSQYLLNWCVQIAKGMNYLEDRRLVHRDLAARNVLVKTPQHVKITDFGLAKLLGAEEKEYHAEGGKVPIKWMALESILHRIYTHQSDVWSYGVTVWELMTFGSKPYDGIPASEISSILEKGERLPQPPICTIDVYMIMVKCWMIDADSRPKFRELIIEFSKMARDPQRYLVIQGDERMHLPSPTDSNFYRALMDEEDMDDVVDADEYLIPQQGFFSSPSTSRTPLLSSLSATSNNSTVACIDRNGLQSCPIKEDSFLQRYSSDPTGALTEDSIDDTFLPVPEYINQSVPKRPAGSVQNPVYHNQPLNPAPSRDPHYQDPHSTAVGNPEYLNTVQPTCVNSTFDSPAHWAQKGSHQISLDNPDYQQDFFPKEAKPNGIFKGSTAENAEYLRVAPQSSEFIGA
Sequence of PRKCH (P24723 whole entry): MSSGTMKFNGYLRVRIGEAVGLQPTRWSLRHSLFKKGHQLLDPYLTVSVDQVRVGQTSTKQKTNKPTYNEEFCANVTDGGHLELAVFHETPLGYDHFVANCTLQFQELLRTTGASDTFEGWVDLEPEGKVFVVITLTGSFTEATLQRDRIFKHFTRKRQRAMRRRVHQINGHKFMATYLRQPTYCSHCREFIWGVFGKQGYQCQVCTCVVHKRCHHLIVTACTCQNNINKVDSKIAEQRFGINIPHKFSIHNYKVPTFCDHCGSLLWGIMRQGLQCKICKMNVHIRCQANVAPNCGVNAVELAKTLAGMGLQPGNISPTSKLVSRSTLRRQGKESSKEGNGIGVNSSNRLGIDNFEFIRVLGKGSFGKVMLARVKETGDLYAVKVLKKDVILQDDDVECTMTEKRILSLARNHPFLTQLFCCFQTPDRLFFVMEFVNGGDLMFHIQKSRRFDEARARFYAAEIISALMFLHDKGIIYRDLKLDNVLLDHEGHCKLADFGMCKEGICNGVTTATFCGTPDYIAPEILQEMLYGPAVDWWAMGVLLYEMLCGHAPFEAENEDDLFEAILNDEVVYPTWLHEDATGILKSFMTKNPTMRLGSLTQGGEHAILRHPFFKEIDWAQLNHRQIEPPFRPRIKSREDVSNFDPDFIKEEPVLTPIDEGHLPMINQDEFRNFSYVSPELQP
T1 sequence (P00519 whole entry): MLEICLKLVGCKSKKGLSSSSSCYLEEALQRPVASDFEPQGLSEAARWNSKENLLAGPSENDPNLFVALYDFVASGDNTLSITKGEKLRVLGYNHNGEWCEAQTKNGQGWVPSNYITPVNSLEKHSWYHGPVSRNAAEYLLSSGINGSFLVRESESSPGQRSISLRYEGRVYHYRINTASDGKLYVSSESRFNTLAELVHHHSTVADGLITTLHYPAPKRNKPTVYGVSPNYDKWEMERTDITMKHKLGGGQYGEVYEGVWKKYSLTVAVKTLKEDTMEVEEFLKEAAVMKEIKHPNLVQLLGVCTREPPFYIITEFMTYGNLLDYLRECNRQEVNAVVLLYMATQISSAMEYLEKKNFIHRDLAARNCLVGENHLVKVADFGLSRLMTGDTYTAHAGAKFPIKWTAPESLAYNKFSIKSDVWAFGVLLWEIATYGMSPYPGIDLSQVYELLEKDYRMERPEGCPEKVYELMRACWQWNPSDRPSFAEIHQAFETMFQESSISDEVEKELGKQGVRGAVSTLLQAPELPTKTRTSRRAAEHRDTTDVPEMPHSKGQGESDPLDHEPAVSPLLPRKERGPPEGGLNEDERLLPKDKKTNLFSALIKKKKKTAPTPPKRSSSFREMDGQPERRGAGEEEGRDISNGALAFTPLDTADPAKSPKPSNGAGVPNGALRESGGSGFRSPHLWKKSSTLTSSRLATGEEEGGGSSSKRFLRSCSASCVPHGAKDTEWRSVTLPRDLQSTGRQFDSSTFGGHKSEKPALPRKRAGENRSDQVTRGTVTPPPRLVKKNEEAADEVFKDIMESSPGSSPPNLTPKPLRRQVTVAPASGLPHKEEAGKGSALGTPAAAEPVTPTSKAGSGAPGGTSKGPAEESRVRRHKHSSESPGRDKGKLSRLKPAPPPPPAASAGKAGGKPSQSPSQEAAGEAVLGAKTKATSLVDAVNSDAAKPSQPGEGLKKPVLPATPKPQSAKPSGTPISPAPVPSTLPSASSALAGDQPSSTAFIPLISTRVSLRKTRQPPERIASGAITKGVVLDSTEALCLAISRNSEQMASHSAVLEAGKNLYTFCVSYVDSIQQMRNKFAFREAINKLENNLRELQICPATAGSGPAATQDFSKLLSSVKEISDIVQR

O=C(/C=C/c1cnccc1-c1ccc(F)cc1)Nc1ccc(CCc2nnco2)cc1 [T-418, (2E)-3-(4-(4-fluorophenyl)pyridin-3-yl)-N-(4-(2-(1,3,4-oxadiazol-2-yl)ethyl)phenyl)acrylamide]
remaining binding at 0.3 µM (ABL1-nonphosphorylated; sheet T-418): 89%
remaining binding at 0.3 µM (AMPK-alpha1; sheet T-418): 100%
remaining binding at 0.3 µM (BRAF(V600E); sheet T-418): 100%
remaining binding at 0.3 µM (CHEK2; sheet T-418): 89%
remaining binding at 0.3 µM (DDR2; sheet T-418): 100%
remaining binding at 0.3 µM (DMPK2; sheet T-418): 71%
remaining binding at 0.3 µM (EGFR; sheet T-418): 59%
remaining binding at 0.3 µM (HUNK; sheet T-418): 100%
remaining binding at 0.3 µM (IKK-beta; sheet T-418): 100%
remaining binding at 0.3 µM (JNK1; sheet T-418): 90%
remaining binding at 0.3 µM (LATS2; sheet T-418): 100%
remaining binding at 0.3 µM (MARK2; sheet T-418): 100%
remaining binding at 0.3 µM (MKK7; sheet T-418): 100%
remaining binding at 0.3 µM (MYLK; sheet T-418): 100%
remaining binding at 0.3 µM (PFPK5(P.falciparum); sheet T-418): 76%
remaining binding at 0.3 µM (PLK2; sheet T-418): 57%
remaining binding at 0.3 µM (PRKCH; sheet T-418): 88%
remaining binding at 0.3 µM (PRKD1; sheet T-418): 96%
remaining binding at 0.3 µM (ROS1; sheet T-418): 100%
remaining binding at 0.3 µM (TBK1; sheet T-418): 75%
remaining binding at 0.3 µM (TESK1; sheet T-418): 99%
IC50 (CDK8): 23 nM

Cc1ncccc1Oc1sc(C(N)=O)c2c1-c1c(cnn1C)CC2 [T-474, 1-methyl-8-((2-methylpyridin-3-yl)oxy)-4,5-dihydro-1H-thieno[3,4-g]indazole-6-carboxamide]
remaining binding at 0.3 µM (ABL1-nonphosphorylated): 87%
remaining binding at 0.3 µM (AMPK-alpha1): 100%
remaining binding at 0.3 µM (BRAF(V600E)): 100%
remaining binding at 0.3 µM (CHEK2): 100%
remaining binding at 0.3 µM (DDR2): 100%
remaining binding at 0.3 µM (DMPK2): 87%
remaining binding at 0.3 µM (EGFR): 61%
remaining binding at 0.3 µM (HUNK): 100%
remaining binding at 0.3 µM (IKK-beta): 100%
remaining binding at 0.3 µM (JNK1): 87%
remaining binding at 0.3 µM (LATS2): 100%
remaining binding at 0.3 µM (MARK2): 100%
remaining binding at 0.3 µM (MKK7): 100%
remaining binding at 0.3 µM (MYLK): 100%
remaining binding at 0.3 µM (PFPK5(P.falciparum)): 95%
remaining binding at 0.3 µM (PLK2): 67%
remaining binding at 0.3 µM (PRKCH): 100%
remaining binding at 0.3 µM (PRKD1): 96%
remaining binding at 0.3 µM (ROS1): 100%
remaining binding at 0.3 µM (TBK1): 67%
remaining binding at 0.3 µM (TESK1): 100%
